Molecules are shown by their SMILES. Like-named read-outs stand apart in the source and are kept apart here.

For series [1], the target named is T1, Human recombinant cathepsin K (Homo sapiens, UniProt P43235).
T1 sequence (P43235 115-329): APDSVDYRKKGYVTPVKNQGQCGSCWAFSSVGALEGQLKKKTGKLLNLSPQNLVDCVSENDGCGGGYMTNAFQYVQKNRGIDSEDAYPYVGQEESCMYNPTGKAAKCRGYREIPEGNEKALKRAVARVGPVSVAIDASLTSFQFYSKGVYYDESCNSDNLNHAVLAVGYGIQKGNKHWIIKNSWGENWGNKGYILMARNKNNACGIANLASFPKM
Kind of series: Cathepsin K assay. It counts as biochemical. The note with it: for Ki: SD lower than 15%, read-out: pKi CatK (converted). The protocol:
Human recombinant cathepsin K was assayed on a FLUOSTAR Optima plate reader at 25 °C with an excitation wavelength of 360 nm and an emission wavelength of 440 nm on a 96 well plate. The enzyme solution (23 μg/mL in 50 mM sodium acetate pH 5.5, 50 mM NaCl, 0.5 mM EDTA, 5 mM DTT) was diluted 1:100 with assay buffer (100 mM sodium citrate buffer pH 5.0, 100 mM NaCl, 1 mM EDTA, 0.01% CHAPS) containing 5 mM DTT and was then incubated at 37 °C for 30 min for activation. A 1.5 mM stock solution of the substrate Z-Leu-Arg-AMC was prepared in DMSO. […] The assay was performed with a final concentration of cathepsin K of 1.73 ng/mL. Stock solutions of inhibitors were prepared in DMSO. The final DMSO concentration was 2% (4 μL). Into a well containing 194.5 μL assay buffer, 0.8 μL of the fluorogenic substrate, DMSO and inhibitor solution (3.2 μL) were added. Upon addition of cathepsin K (1.5 μL), the measurement was started and followed for 20 min.

In series [2] the test system is T. cruzi Tulahuen LacZ strain, intracellular amastigote forms. Kind of series: In vitro trypanocidal activity on intracellular amastigote forms (Tulahuen strain). It is filed as cell-based, Trypanosoma cruzi. The following applies: for fold increase in trypanocidal potency: compared with compound 9; for SI (selective index): from EC50 (T. cruzi) and CC50 (LLCMK2). The protocol: Cells were evaluated in 96-well plates. Cells from the LLCMK2 lineage were plated at a concentration of 5x10^4 cells mL^-1. Trypomastigote forms of the Tulahuen LacZ strain were added at a concentration of 5×10^5 parasites mL^-1 and placed in the incubator at 37°C with 5% CO2 for 24 h. After the incubation period, the trypomastigote forms present were removed by successive washes with PBS, remaining only as intracellular amastigote forms. Compounds were added at different concentrations (1.95 μM to 250 μM serial dilutions) and incubated for 72 h. At the end of this period, the substrate CPRG (chlorophenol red β-D-galactopyranoside, 400 μM in 0.3% Triton X-100, pH 7.4) was added. […] Benznidazole was used as a positive control in the same concentrations as the substances, and DMSO as a negative control. Compounds were solubilized in DMSO. The selectivity index (SI) was calculated using the formula: […]. All statistical analyses were done with the program GraphPad Prism v.5.

For series [3], the target named is Leishmania mexicana CPB (LmCPB) (Leishmania mexicana, UniProt P36400). Put plainly: LmCPB enzyme inhibition. It is filed as biochemical. The protocol: (§1) Enzyme inhibition studies for Cz and LmCPB were performed as previously described for Cz. The experimental procedures are described in the Supporting Information (see chapter S3). Cathepsins B, L, S were assayed as reported.
Chain of Leishmania mexicana CPB (LmCPB) (P36400 126-443): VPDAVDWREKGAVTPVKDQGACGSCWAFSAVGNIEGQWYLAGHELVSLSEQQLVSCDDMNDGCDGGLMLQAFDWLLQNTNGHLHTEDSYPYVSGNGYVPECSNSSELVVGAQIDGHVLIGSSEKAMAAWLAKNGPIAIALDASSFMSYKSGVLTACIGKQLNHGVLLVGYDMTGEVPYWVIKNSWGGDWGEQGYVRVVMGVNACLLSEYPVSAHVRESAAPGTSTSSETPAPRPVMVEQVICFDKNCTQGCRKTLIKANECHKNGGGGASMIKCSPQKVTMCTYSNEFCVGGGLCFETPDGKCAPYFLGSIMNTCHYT

Series [4] can be described thus: Mammalian cytotoxicity assay (MTT).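 Note: Read-out is absorbance at 570 nm of formazan taken up in DMSO.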 It counts as cell-based. The following applies: rhesus monkey, LLCMK2 cells.
Description: LLCMK2 cells were cultured in 96-well plates at a concentration of 5 x 10^4 cells/ml. After 48 h, the plates were washed twice with PBS and 200 μL RPMI medium was added with serial dilutions of the compounds and benznidazole (1.95 μM to 250 μM) in triplicate. After 72 h at 37 °C, the cytotoxic activity of the compounds was determined by the classical MTT [3- (4,5-dimethylthiazol-2-yl) -2,5-diphenyltetrazolium bromide] method. Briefly, 50 μL MTT dissolved in PBS (2.0 mg mL^-1) was added to each well and the plates were incubated for 4 h at 37 °C. The formed formazan crystals were dissolved with DMSO (50 μL/well) and the absorbance of the samples was measured by spectrophotometer at 570 nm after 30 min.
In the next series the target is recombinant cruzain (Cz) (Trypanosoma cruzi, UniProt P25779). Put plainly: Cruzain enzyme inhibition. It is filed as biochemical. Here is the method:
as §1

In another series the target is cathepsin B (CatB) (Homo sapiens, UniProt P07858). Put plainly: Cathepsin B enzyme inhibition. It is filed as biochemical. The note with it: for Ki: SD lower than 15%, read-out: pKi CatB (converted).
The target of the next series is cathepsin S (CatS) (Homo sapiens, UniProt P25774). Kind of series: Cathepsin S enzyme inhibition. It counts as biochemical. The following applies: SD lower than 15%; read-out: pKi CatS (converted). Here is the method: as §1
Chain of cathepsin S (CatS) (P25774 115-331): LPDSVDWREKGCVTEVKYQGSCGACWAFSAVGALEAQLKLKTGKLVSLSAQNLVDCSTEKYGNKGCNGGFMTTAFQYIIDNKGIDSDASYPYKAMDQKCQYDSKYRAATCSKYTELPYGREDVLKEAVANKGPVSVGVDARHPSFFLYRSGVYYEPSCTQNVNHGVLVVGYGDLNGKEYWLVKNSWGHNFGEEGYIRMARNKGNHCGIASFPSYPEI
The next series concerns the target cathepsin L (CatL) (Homo sapiens, UniProt P07711). Kind of series: Cathepsin L enzyme inhibition. It counts as biochemical. The following applies: SD lower than 15%; for Ki: read-out: pKi CatL (converted).
[5] abbreviates: 10 μM, replicates = 2, n.i. = no inhibition observed at 10 μM.
[6] abbreviates: Trypanosoma cruzi, TULAHUEN, read-out: EC50 T. cruzi, S1 Table, maximum concentration used 250 µM.
[7] abbreviates: SD lower than 15%, read-out: pKi LmCPB (converted).
Setting [8] is: S1 Table, maximum concentration used 250 µM, read-out: CC50.
Where [9] appears, read: SD lower than 15%, read-out: pKi Cz (converted).
Where [10] appears, read: Trypanosoma cruzi, TULAHUEN, 72 h, amastigote, Tulahuen strain, 72 h, Table 2, read-out: EC50 trypanocidal activity.
Setting [11] is: Trypanosoma cruzi, TULAHUEN, T. cruzi amastigote form, S1 Table, read-out: pEC50 (converted).
[12] abbreviates: LLCMK2, 72 h, MTT, Table 2, read-out: CC50 cytotoxicity.
The mark [13] stands for this setting: Trypanosoma cruzi, TULAHUEN, S1 Table, maximum concentration used 250 µM, read-out: EC50 T. cruzi.
Setting [14] is: Trypanosoma cruzi, TULAHUEN, read-out: pEC50, T. cruzi amastigote form (converted), S1 Table.

Chain of cathepsin L (CatL) (P07711 114-333): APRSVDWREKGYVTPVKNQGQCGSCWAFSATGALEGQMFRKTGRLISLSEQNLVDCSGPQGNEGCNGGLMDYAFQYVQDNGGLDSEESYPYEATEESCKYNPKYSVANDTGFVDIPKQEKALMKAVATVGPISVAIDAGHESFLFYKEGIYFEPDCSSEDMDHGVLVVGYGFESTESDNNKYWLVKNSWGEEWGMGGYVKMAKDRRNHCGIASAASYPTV
Chain of recombinant cruzain (Cz) (P25779 123-337): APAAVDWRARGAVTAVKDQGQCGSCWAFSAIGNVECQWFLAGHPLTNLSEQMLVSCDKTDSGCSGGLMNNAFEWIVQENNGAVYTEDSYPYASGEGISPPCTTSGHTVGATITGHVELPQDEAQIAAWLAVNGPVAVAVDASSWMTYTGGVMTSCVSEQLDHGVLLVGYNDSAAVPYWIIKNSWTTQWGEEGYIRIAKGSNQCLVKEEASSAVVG

For the molecule `N#CC1(NC(=O)[C@H](Cc2c[nH]c3ccccc23)NC(=O)c2ccnc3cc(Cl)ccc23)CC1` [Compound 14, (S)-7-Chloro-N-(1-((1-cyanocyclopropyl)amino)-3-(1H-indol-3-yl)-1-oxopropan-2-yl)quinoline-4-carboxamide], the melting point lay in the range of 196 to 197 °C. Besides, in [1] (setting [5]), the “remaining activity (%) at 10 μM, CatK” value is “n.i.^c”. Further, the EC50 in [2] (setting [6]) was over 100000 nM. For the same molecule, the Ki in [3] (setting [7]) was 2000 nM. Further, the half-maximal cytotoxic concentration (CC50) at 72 h in series [4] (setting [8]) was over 100000 nM. Besides, the Ki at recombinant cruzain (Cz) (setting [9]) is 631 nM. Further, the Ki on cathepsin B (CatB) was 20000 nM. Moreover, the Ki at cathepsin S (CatS) is 1000 nM. On cathepsin L (CatL), the Ki is 2000 nM.

In turn, `CC(C)C[C@@H](C#N)NC(=O)[C@H](Cc1ccccc1)NC(=O)c1cc(C(C)(C)C)nn1C` [Compound 52, 3-(tert-Butyl)-N-((S)-1-(((S)-1-cyano-3-methylbutyl)amino)-1-oxo-3-phenylpropan-2-yl)-1-methyl-1H-pyrazole-5-carboxamide] gave a melting point of 81 to 82 °C. Besides, in [1], the Ki is 200 nM. Further, in [2] (setting [10]), the EC50 was 4100 ± 470 nM. The EC50 in series [2] (setting [11]) is 3980 nM. Moreover, the “fold increase in trypanocidal potency” value in [2] came out at 17.5 fold. In addition, the Ki in series [3] (setting [7]) was 39.8 nM. Further, the CC50 at 72 h in series [4] (setting [12]) was 97900 ± 6520 nM. Moreover, at recombinant cruzain (Cz) (setting [9]), the Ki was 31.6 nM. Besides, the Ki on cathepsin B (CatB) is 7940 nM. Also, at cathepsin S (CatS), the Ki was 126 nM. At cathepsin L (CatL), the Ki is 5.01 nM.

As to `C[C@@H](OCc1ccccc1)[C@@H](C#N)NC(=O)[C@H](Cc1cccc(Cl)c1)NC(=O)c1cc(C(C)(C)C)nn1C` [Compound 60, N-((S)-1-(((1R,2R)-2-(Benzyloxy)-1-cyanopropyl)amino)-3-(3-chlorophenyl)-1-oxopropan-2-yl)-3-(tert-butyl)-1-methyl-1H-pyrazole-5-carboxamide], the Ki in [1] is 1000 nM; in series [3] (setting [7]) it was 158 nM; at recombinant cruzain (Cz) (setting [9]) it was 63.1 nM; on cathepsin B (CatB), 501 nM; at cathepsin S (CatS) it was 316 nM; at cathepsin L (CatL), 7.94 nM. The EC50 in [2] (setting [10]) is 4900 ± 450 nM; in series [2] (setting [11]) it was 5010 nM. The “fold increase in trypanocidal potency” value in series [2] amounted to 14.5 fold. In [2] (Table 2), the “SI (selective index)” value was over 20. For the same molecule, the CC50 at 72 h is over 100000 nM in series [4] (setting [12]) and 125000 nM in series [4] (setting [8]).

For the molecule `C[C@@H](O)[C@@H](C#N)NC(=O)[C@H](Cc1cccc(Cl)c1)NC(=O)c1cc(C(C)(C)C)nn1C` [Compound 69, 3-(tert-butyl)-N-((S)-3-(3-chlorophenyl)-1-(((1R,2R)-1-cyano-2-hydroxypropyl)amino)-1-oxopropan-2-yl)-1-methyl-1H-pyrazole-5-carboxamide], the Ki was 794 nM in series [1]; 1000 nM in [3] (setting [7]); 126 nM at recombinant cruzain (Cz) (setting [9]); 6310 nM on cathepsin B (CatB); 251 nM at cathepsin S (CatS); 6.31 nM at cathepsin L (CatL). Besides, the EC50 is 30600 ± 3110 nM in series [2] (setting [10]), 30500 nM in series [2] (setting [13]) and 31600 nM in [2] (setting [11]). Further, the CC50 at 72 h in [4] (setting [12]) is over 100000 nM.

Take `Cn1nc(C(C)(C)C)cc1C(=O)N[C@@H](Cc1ccncc1)C(=O)NC1(C#N)CC1` [Compound 10, (S)-3-(tert-Butyl)-N-(1-((1-cyanocyclopropyl)amino)-1-oxo-3-(pyridin-4-yl)propan-2-yl)-1-methyl-1H-pyrazole-5-carboxamide]: the Ki in series [1] was 10000 nM; in [3] (setting [7]), 398 nM; at recombinant cruzain (Cz) (setting [9]), 251 nM; on cathepsin S (CatS) it was 2510 nM; on cathepsin L (CatL), 25.1 nM. Also, the EC50 was 67600 ± 8220 nM in series [2] (setting [10]) and 63100 nM in series [2] (setting [14]). For the same molecule, the “SI (selective index)” value in [2] (Table 2) is over 1.5. Further, in series [4] (setting [12]), the CC50 at 72 h is over 100000 nM. Also, the remaining activity at 10 µM at cathepsin B (CatB) (setting [5]) was 93%.

In the case of `N#CC1(NC(=O)[C@H](Cc2ccccc2)NC(=O)c2ccccc2)CC1` [Compound 6], the Ki in series [1] was 398 nM; in [3] (setting [7]), 251 nM; on cathepsin S (CatS) it was 79.4 nM. In addition, the EC50 in [2] (setting [6]) and in [2] (setting [14]) was over 100000 nM throughout. For the same molecule, the “pKi CatL” value at cathepsin L (CatL) is 7.4.

`Cn1nc(C(C)(C)C)cc1C(=O)N[C@@H](Cc1ccccc1)C(=O)NC1(C#N)CC1` [Compound 9]: the Ki in series [1] was 316 nM; in series [3] (setting [7]), 79.4 nM; at recombinant cruzain (Cz) (setting [9]), 50.1 nM; on cathepsin B (CatB), 15800 nM; on cathepsin S (CatS), 158 nM; at cathepsin L (CatL) it was 6.31 nM. Moreover, the EC50 was 71800 nM in series [2] (Trypanosoma cruzi, TULAHUEN, 72 h, read-out: EC50 trypanocidal activity, amastigote, Tulahuen strain, 72 h, Table 2); 79400 nM in [2] (setting [14]); 72000 ± 5700 nM in [2] (amastigote, Tulahuen strain, 72 h, Table 2, read-out: EC50 trypanocidal activity). Also, in series [2] (Table 2), the “SI (selective index)” value was over 1.4. In addition, the CC50 at 72 h in series [4] (setting [12]) was over 100000 nM.

For the molecule `CC(C)C[C@H](NC(=O)c1cc(C(C)(C)C)nn1C)C(=O)NC1(C#N)CC1` [Compound 11], the Ki was 5.01 nM in series [1]; 50.1 nM in [3] (setting [7]); 15.8 nM at recombinant cruzain (Cz) (setting [9]); 31600 nM at cathepsin B (CatB); 39.8 nM at cathepsin S (CatS); 25.1 nM on cathepsin L (CatL). In addition, the EC50 in series [2] (setting [6]) and in series [2] (setting [14]) was over 100000 nM throughout. Further, the CC50 at 72 h in series [4] (setting [8]) is over 100000 nM. In addition, the “difference in pKi, Cz” value at recombinant cruzain (Cz) (relative to compound 9, sign not given, direction by cell colour or wording) stood at 0.5.

Regarding `Cn1nc(C(C)(C)C)cc1C(=O)N[C@@H](Cc1ccccc1)C(=O)N[C@H](C#N)Cc1ccncc1` [Compound 55, 3-(tert-Butyl)-N-((S)-1-(((S)-1-cyano-2-(pyridin-4-yl)ethyl)amino)-1-oxo-3-phenylpropan-2-yl)-1-methyl-1H-pyrazole-5-carboxamide], the Ki in series [1] is 316 nM; in series [3], 63.1 nM; on recombinant cruzain (Cz), 31.6 nM; at cathepsin B (CatB), 15800 nM; on cathepsin S (CatS), 63.1 nM; at cathepsin L (CatL) it was 5.01 nM. The EC50 in [2] (setting [13]) and in series [2] (setting [11]) was over 100000 nM throughout. Also, the CC50 at 72 h in [4] (setting [8]) was over 100000 nM.

As to `O=C(Cn1ccnc1[N+](=O)[O-])NCc1ccccc1` [Benznidazole, reference compound], the EC50 was 4400 ± 470 nM in series [2] (setting [10]), 4300 nM in series [2] (setting [13]) and 3980 nM in series [2] (setting [11]). Besides, the “SI (selective index)” value in [2] (Table 2) is reported as over 23. Further, the 50% cytotoxic concentration (CC50) at 72 h in [4] (setting [12]) was over 100000 nM.

The values are drawn from PMC7067379, “Mapping the S1 and S1’ subsites of cysteine proteases with new dipeptidyl nitrile inhibitors as trypanocidal agents” (PLoS Neglected Tropical Diseases, 2020).
